In ChEMBL document CHEMBL3046648, “Herbicidally Active N-(1-Arylethenyl)-2-chloroacetamides Bearing an Alkyloxyalkyl Moiety” (1991) one finds Activity data, which are given here for eleven molecules.

Holding throughout (format): functional
The test system of experiment [1] is Stellaria media. The experiment is described as follows: Herbicidal activity against Stellaria media assessed as killing at 2.5 g/a at 25 degC measured after 2 weeks.
For experiment [2], the system named is Stellaria media. The experiment is described as follows: Herbicidal activity against Stellaria media assessed as killing at 10 g/a at 25 degC measured after 2 weeks.
The test system of experiment [3] is Amaranthus blitum subsp. oleraceus. Nature of the experiment: Herbicidal activity against Amaranthus blitum subsp. oleraceus assessed as killing at 2.5 g/a at 25 degC measured after 2 weeks.
Experiment [4] has as its system Kummerowia striata. The experiment is described as follows: Herbicidal activity against Kummerowia striata assessed as killing at 2.5 g/a at 25 degC measured after 2 weeks.
Experiment [5] relates to Amaranthus blitum subsp. oleraceus. The experiment is described as follows: Herbicidal activity against Amaranthus blitum subsp. oleraceus assessed as killing at 10 g/a at 25 degC measured after 2 weeks.
The subject of experiment [6] is Poa annua. The experiment is described as follows: Herbicidal activity against Poa annua assessed as killing at 2.5 g/a at 25 degC measured after 2 weeks.
For experiment [7], the system named is Poa annua. Nature of the experiment: Herbicidal activity against Poa annua assessed as killing at 10 g/a at 25 degC measured after 2 weeks.
Experiment [8] deals with Digitaria ciliaris. The experiment is described as follows: Herbicidal activity against Digitaria ciliaris assessed as killing at 2.5 g/a at 25 degC measured after 2 weeks.
In experiment [9] the test system is Digitaria ciliaris. The experiment is described as follows: Herbicidal activity against Digitaria ciliaris assessed as killing at 10 g/a at 25 degC measured after 2 weeks.
In experiment [10] the test system is Setaria viridis. Nature of the experiment: Herbicidal activity against Setaria viridis (green foxtail) assessed as killing at 2.5 g/a at 25 degC measured after 2 weeks.
Experiment [11] relates to Setaria viridis. Nature of the experiment: Herbicidal activity against Setaria viridis (green foxtail) assessed as killing at 10 g/a at 25 degC measured after 2 weeks.
The nature of experiment [12]: Herbicidal activity against annual broad-leaf weeds assessed as killing at 1 g/a at 25 degC measured after 3 weeks.
Experiment [13] in a line: Herbicidal activity against annual broad-leaf weeds assessed as killing at 10 g/a at 25 degC measured after 3 weeks.
Experiment [14] relates to Pontederia vaginalis. The experiment is described as follows: Herbicidal activity against Monochoria vaginalis assessed as killing at 1 g/a at 25 degC measured after 3 weeks.
The subject of experiment [15] is Pontederia vaginalis. The experiment is described as follows: Herbicidal activity against Monochoria vaginalis assessed as killing at 10 g/a at 25 degC measured after 3 weeks.
Experiment [16] relates to Schoenoplectiella juncoides. Nature of the experiment: Herbicidal activity against Schoenoplectiella juncoides assessed as killing at 1 g/a at 25 degC measured after 3 weeks.
In experiment [17] the test system is Schoenoplectiella juncoides. Nature of the experiment: Herbicidal activity against Schoenoplectiella juncoides assessed as killing at 10 g/a at 25 degC measured after 3 weeks.
For experiment [18], the system named is Cyperus difformis. The experiment is described as follows: Herbicidal activity against Cyperus difformis assessed as killing at 1 g/a at 25 degC measured after 3 weeks.
The subject of experiment [19] is Cyperus difformis. The experiment is described as follows: Herbicidal activity against Cyperus difformis assessed as killing at 10 g/a at 25 degC measured after 3 weeks.
In experiment [20] the test system is Echinochloa oryzicola. The experiment is described as follows: Herbicidal activity against Echinochloa oryzicola assessed as killing at 1 g/a at 25 degC measured after 3 weeks.
For experiment [21], the system named is Echinochloa oryzicola. Nature of the experiment: Herbicidal activity against Echinochloa oryzicola assessed as killing at 10 g/a at 25 degC measured after 3 weeks.
Experiment [22] has as its system Kummerowia striata. Nature of the experiment: Herbicidal activity against Kummerowia striata assessed as killing at 10 g/a at 25 degC measured after 2 weeks.

Turning to `COCCN(C(=O)CCl)C(=C(C)C)c1ccccc1`, the Activity was determined as 60% in the experiment on Stellaria media [1]; 80% in the experiment on Stellaria media [2]; 60% in experiment [3]; 80% with Kummerowia striata [4]; 100% in [5]; 100% with Poa annua [6]. In addition, the Activity was 100% with Poa annua [7]; 100% in the experiment on Digitaria ciliaris [8]; 100% in the experiment with Digitaria ciliaris [9]; 80% in the experiment with Setaria viridis [10]; 100% in the experiment on Setaria viridis [11]; 100% in experiment [12]. Further, the Activity (in experiment [13]; in the experiment with Pontederia vaginalis [14]; with Pontederia vaginalis [15]; in experiment [16]; in experiment [17]; with Cyperus difformis [18]) was 100% in each case. Also, the Activity in the experiment with Cyperus difformis [19] was determined as 100%; with Echinochloa oryzicola [20], 100%; with Echinochloa oryzicola [21], 100%; in the experiment on Kummerowia striata [22], 80%.
As to `CCc1cccc(CC)c1N(COC)C(=O)CCl` [ALACHLOR], the Activity turned out to be 40% in the experiment on Stellaria media [1]; 80% in the experiment on Stellaria media [2]; 80% in experiment [3]; 60% with Kummerowia striata [4]; 100% in experiment [5]; 80% with Poa annua [6]. The Activity worked out at 100% with Poa annua [7]; 100% with Digitaria ciliaris [8]; 100% with Digitaria ciliaris [9]; 80% in the experiment with Setaria viridis [10]; 100% in the experiment on Setaria viridis [11]; 80% in the experiment with Kummerowia striata [22].
On to `CCOCCN(C(=O)CCl)C(=C(C)C)c1ccccc1` [PETHOXAMID], for which the Activity in the experiment with Stellaria media [1] stood at 80%; in the experiment on Stellaria media [2] it was 100%; in experiment [3], 100%; with Kummerowia striata [4], 80%; in experiment [5] it was 100%; in the experiment with Poa annua [6], 80%. In addition, the Activity (in the experiment on Poa annua [7]; in the experiment with Digitaria ciliaris [8]; in the experiment with Digitaria ciliaris [9]; in the experiment on Setaria viridis [10]; in the experiment on Setaria viridis [11]; in experiment [13]) was 100% throughout. In addition, the Activity (in the experiment with Pontederia vaginalis [14]; with Pontederia vaginalis [15]; in experiment [16]; in experiment [17]; in the experiment with Cyperus difformis [18]; with Cyperus difformis [19]) was 100% throughout. Also, the Activity with Echinochloa oryzicola [20] is listed as 100%; in the experiment on Echinochloa oryzicola [21], 100%; with Kummerowia striata [22] it was 80%.
For `CCc1cccc(C)c1N(C(=O)CCl)C(C)COC` (configuration not stated) [METOLACHOR], the Activity came out at 60% with Stellaria media [1]; 60% in the experiment on Stellaria media [2]; 100% in experiment [3]; 100% with Kummerowia striata [4]; 80% in [5]; 80% in the experiment on Poa annua [6]. In addition, the Activity came out at 100% in the experiment with Poa annua [7]; 100% in the experiment with Digitaria ciliaris [8]; 100% with Digitaria ciliaris [9]; 80% in the experiment on Setaria viridis [10]; 100% in the experiment on Setaria viridis [11]; 80% in the experiment with Kummerowia striata [22].
In the case of `COCCN(C(=O)CCl)C(=C(C)C)c1cc(C)ccc1C`, the Activity in [12] is 20%; in [13], 100%; in the experiment with Pontederia vaginalis [14] it was 40%; with Pontederia vaginalis [15] it was 100%; in [16], 80%; in experiment [17], 100%. Further, the Activity with Cyperus difformis [18] is given as 80%; in the experiment on Cyperus difformis [19], 100%; with Echinochloa oryzicola [20], 100%; with Echinochloa oryzicola [21], 100%.
As for `COCCN(C(=O)CCl)C(=C(C)C)c1ccccc1Cl`, the Activity is 0% in experiment [12]; 100% in [13]; 0% in the experiment on Pontederia vaginalis [14]; 100% with Pontederia vaginalis [15]; 80% in experiment [16]; 100% in [17]. The Activity in the experiment on Cyperus difformis [18] was determined as 100%; in the experiment with Cyperus difformis [19], 100%; with Echinochloa oryzicola [20] it was 80%; in the experiment on Echinochloa oryzicola [21], 100%.
As for `COCCN(C(=O)CCl)C(=C(C)C)c1ccccc1C`, the Activity in [12] came to 80%; in [13], 80%; in the experiment on Pontederia vaginalis [14], 0%; in the experiment on Pontederia vaginalis [15], 80%; in experiment [16], 0%; in [17], 100%. For the same molecule, the Activity was 80% with Cyperus difformis [18], 100% in the experiment on Cyperus difformis [19], 80% with Echinochloa oryzicola [20] and 100% in the experiment with Echinochloa oryzicola [21].
As to `C=CCOCCN(C(=O)CCl)C(=C(C)C)c1ccccc1`, the Activity (in [12]; in experiment [13]; in the experiment on Pontederia vaginalis [14]; in the experiment with Pontederia vaginalis [15]; in experiment [16]; in experiment [17]) was 100% in each case. The Activity in the experiment with Cyperus difformis [18], with Cyperus difformis [19], in the experiment on Echinochloa oryzicola [20] and in the experiment on Echinochloa oryzicola [21] was 100% each time.
Turning to `COCCN(C(=O)CCl)C(=C(C)C)c1ccc(OC)cc1`, the Activity in [12] was determined as 0%; in experiment [13], 100%; in the experiment on Pontederia vaginalis [14] it was 80%; in the experiment on Pontederia vaginalis [15], 100%; in experiment [16], 80%; in [17], 100%. Also, the Activity is given as 100% with Cyperus difformis [18], 100% in the experiment with Cyperus difformis [19], 80% with Echinochloa oryzicola [20] and 100% in the experiment on Echinochloa oryzicola [21].
On to `COCCN(C(=O)CCl)C(=C(C)C)c1cccc(C)c1`, for which the Activity (in experiment [12]; in [13]; with Pontederia vaginalis [14]; with Pontederia vaginalis [15]; in experiment [16]; in [17]) was 100% throughout. For the same molecule, the Activity in the experiment with Cyperus difformis [18], in the experiment on Cyperus difformis [19], with Echinochloa oryzicola [20] and in the experiment on Echinochloa oryzicola [21] was 100% in each case.
For the molecule `COCCN(C(=O)CCl)C(=C(C)C)c1cccs1`, the Activity in experiment [12] was determined as 0%; in [13], 100%; in the experiment with Pontederia vaginalis [14], 100%; in the experiment on Pontederia vaginalis [15], 100%; in experiment [16] it was 100%; in [17], 100%. The Activity in the experiment on Cyperus difformis [18], in the experiment with Cyperus difformis [19], with Echinochloa oryzicola [20] and with Echinochloa oryzicola [21] was 100% each time.
